{"source": "paper PMC12633397", "about": "(bioRxiv, 2025)", "target": "T1, esVHPO (Enhygromyxa salina, UniProt A0A0C2CTX7)", "T1 sequence (A0A0C2CTX7 1-528)": "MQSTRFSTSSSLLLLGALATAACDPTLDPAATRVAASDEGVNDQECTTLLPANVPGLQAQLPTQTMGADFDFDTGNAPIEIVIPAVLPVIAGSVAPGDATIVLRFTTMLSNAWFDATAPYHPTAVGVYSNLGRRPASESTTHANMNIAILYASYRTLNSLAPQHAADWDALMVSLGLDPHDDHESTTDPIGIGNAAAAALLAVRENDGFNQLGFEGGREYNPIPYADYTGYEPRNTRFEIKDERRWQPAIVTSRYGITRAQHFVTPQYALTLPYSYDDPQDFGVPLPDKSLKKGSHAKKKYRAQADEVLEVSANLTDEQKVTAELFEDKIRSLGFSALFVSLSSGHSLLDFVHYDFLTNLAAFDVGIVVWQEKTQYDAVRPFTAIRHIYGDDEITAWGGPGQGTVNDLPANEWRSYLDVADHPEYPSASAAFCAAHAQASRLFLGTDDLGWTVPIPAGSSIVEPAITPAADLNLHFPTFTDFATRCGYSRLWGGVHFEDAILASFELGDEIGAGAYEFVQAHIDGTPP", "experiment": "UPLC-MS of Br-MHQ formation, steady-state kinetics", "assay_type": "biochemical", "settings": "1 mM H2O2, 20 mM KBr, 100 μM Na3VO4, 20 mM HEPES-KOH, 10% glycerol, 28 °C; Hill fit, positive cooperativity; labelled compound (deuterated)"}
{"smiles": "Cc1cc(=O)c2ccccc2[nH]1", "note": "[C3-deuterated MHQ]", "values": [{"measurement": "K0.5", "value": "The steady state kinetics for C3-Deuterated-MHQ (D-MHQ) was performed precisely as for undeuterated MHQ"}]}
